Assay results: US20200131142A1, “FARNESOID X RECEPTOR AGONISTS AND USES THEREOF” (Metacrine, Inc., priority 2017, published 2020)

Target: T1, hFXR (Homo sapiens, UniProt Q96RI1)
T1 construct: expressed in transfected cells; host or cells: CV-1 cells
T1 sequence (Q96RI1 1-486): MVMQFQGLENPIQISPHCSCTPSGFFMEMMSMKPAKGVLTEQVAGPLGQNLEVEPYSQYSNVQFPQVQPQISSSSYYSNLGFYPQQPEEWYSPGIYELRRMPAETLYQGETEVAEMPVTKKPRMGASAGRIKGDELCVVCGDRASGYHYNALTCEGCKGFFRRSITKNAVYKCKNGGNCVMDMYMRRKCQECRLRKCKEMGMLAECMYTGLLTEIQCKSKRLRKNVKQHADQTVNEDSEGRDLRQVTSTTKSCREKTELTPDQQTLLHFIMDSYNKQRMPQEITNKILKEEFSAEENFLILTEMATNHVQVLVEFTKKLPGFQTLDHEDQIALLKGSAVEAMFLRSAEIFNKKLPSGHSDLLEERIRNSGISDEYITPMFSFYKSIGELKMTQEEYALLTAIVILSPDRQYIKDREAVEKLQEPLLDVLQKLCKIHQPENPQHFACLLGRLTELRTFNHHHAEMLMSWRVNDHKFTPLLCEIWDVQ
T1 sequence (P19793 1-462 partner): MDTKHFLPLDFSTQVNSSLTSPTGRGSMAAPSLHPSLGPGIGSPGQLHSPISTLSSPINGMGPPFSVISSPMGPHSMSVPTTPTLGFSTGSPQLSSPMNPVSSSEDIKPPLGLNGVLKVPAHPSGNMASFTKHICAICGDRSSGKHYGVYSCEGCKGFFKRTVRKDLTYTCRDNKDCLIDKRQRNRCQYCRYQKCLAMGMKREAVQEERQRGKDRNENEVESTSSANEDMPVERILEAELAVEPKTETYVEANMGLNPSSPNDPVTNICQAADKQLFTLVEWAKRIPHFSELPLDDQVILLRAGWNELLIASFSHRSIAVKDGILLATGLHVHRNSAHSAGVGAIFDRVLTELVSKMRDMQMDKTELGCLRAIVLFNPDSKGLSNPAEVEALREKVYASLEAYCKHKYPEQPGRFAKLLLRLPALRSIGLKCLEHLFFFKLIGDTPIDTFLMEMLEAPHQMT
Assay: In Vitro FXR Assay (TK): hFXR/hRXR TK-ECRE-luc reporter in transfected CV-1 cells
Assay type: cell-based
Details: 18 hrs incubation, luminescence, compounds with maximum efficacy <25% of the Fexarmine control classified as '+'
Summary of the method: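 Reporter gene assay: CV-1 cells co-expressing hFXR, hRXR, TK-ECRE-luc and pCMX-YFP after overnight transfection in charcoal-stripped serum. Treatment with serially diluted compounds lasted 18 hrs at 37 °C, followed by cell lysis and a luminescence measurement.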

`CN(C)c1ccc([C@H]2CC[C@H](CN(c3cccc(-c4cnc(C5CC5)s4)c3)C(=O)[C@H]3CC[C@H](O)CC3)CC2)cn1` [Compound 9.07, trans-N-(3-(2-Cyclopropylthiazol-5-yl)phenyl)-N-((trans-4-(6-(dimethylamino)pyridin-3-yl)cyclohexyl)methyl)-4-hydroxycyclohexanecarboxamide] and `COc1ccc([C@H]2CC[C@H](CN(c3cccc(-c4cnc(C5CC5)s4)c3)C(=O)[C@H]3CC[C@H](O)CC3)CC2)cc1C` [Compound 7, trans-N-(3-(2-Cyclopropylthiazol-5-yl)phenyl)-4-hydroxy-N-((trans-4-(4-methoxy-3-methylphenyl)cyclohexyl)methyl) cyclohexanecarboxamide] cannot be ordered by EC50: at most 0.25 µM for the first, at most 0.25 µM for the second.

First: COc1ncc(-c2cccc(N(C[C@H]3CC[C@H](c4ccc(OC)c(C)c4)CC3)C(=O)[C@H]3CC[C@@H](O)CC3)c2)s1 [Compound 5, cis-4-Hydroxy-N-((trans-4-(4-methoxy-3-methylphenyl)cyclohexyl)methyl)-N-(3-(2-methoxythiazol-5-yl)phenyl)cyclohexanecarboxamide]
Second: COc1ncc(-c2cccc(N(C[C@H]3CC[C@H](c4ccc(OC)c(C)c4)CC3)C(=O)[C@H]3CC[C@H](N)CC3)c2)s1 [Compound 13.01, trans-4-Amino-N-((trans-4-(4-methoxy-3-methylphenyl)cyclohexyl)methyl)-N-(3-(2-methoxythiazol-5-yl)phenyl)cyclohexanecarboxamide]
The EC50 of the first is lower: at most 0.25 µM for the first, at least 1 µM for the second. The first is the more potent here.

`COc1ccc([C@H]2CC[C@H](CN(c3cccc(CCc4nccs4)c3)C(=O)[C@H]3CC[C@H](O)CC3)CC2)cc1C` [Compound 6.07, trans-4-Hydroxy-N-((trans-4-(4-methoxy-3-methylphenyl)cyclohexyl)methyl)-N-(3-(2-(thiazol-2-yl)ethyl)phenyl)cyclohexanecarboxamide] and `COc1ccc([C@H]2CC[C@H](CN(c3cccc(/C=C/c4nccs4)c3)C(=O)[C@H]3CC[C@H](O)CC3)CC2)cc1C` [Compound 6.06, trasn-4-Hydroxy-N-((trans-4-(4-methoxy-3-methylphenyl)cyclohexyl)methyl)-N-(3-((E)-2-(thiazol-2-yl)vinyl)phenyl)cyclohexanecarboxamide] cannot be ordered by EC50: at most 0.25 µM for the first, at most 0.25 µM for the second.

`CCn1cc([C@H]2CC[C@H](CN(c3cccc(-c4cnc(C5CC5)s4)c3)C(=O)[C@H]3CC[C@H](O)CC3)CC2)cn1` [Compound 9.18, trans-N-(3-(2-Cyclopropylthiazol-5-yl)phenyl)-N-((trans-4-(1-ethyl-1H-pyrazol-4-yl)cyclohexyl)methyl)-4-hydroxycyclohexanecarboxamide] and `COc1ccc([C@H]2CC[C@H](CN(c3cccc(-c4cnc(CO)s4)c3)C(=O)[C@H]3CC[C@H](O)CC3)CC2)cc1C` [Compound 7.19, trans-4-Hydroxy-N-(3-(2-(hydroxymethyl)thiazol-5-yl)phenyl)-N-((trans-4-(4-methoxy-3-methylphenyl)cyclohexyl)methyl) cyclohexanecarboxamide] cannot be ordered by EC50: at most 0.25 µM for the first, 0.25 to 1 µM for the second.

`COc1ccc([C@H]2CC[C@H](CN(c3cccc(-c4csc(C)n4)c3)C(=O)[C@H]3CC[C@H](O)CC3)CC2)cc1C` [Compound 7.02, trans-4-Hydroxy-N-((trans-4-(4-methoxy-3-methylphenyl)cyclohexyl)methyl)-N-(3-(2-methylthiazol-4-yl)phenyl)cyclohexanecarboxamide] and `COc1ccc([C@H]2CC[C@H](CN(c3cccc(-c4ncc(C)s4)c3)C(=O)[C@H]3CC[C@H](O)CC3)CC2)cc1C` [Compound 7.03, trans-4-Hydroxy-N-((trans-4-(4-methoxy-3-metthylphenyl)cyclohexyl)methyl)-N-(3-(5-methylthiazol-2-yl)phenyl)cyclohexanecarboxamide] cannot be ordered by EC50: 0.25 to 1 µM for the first, at least 1 µM for the second.

`COc1ccc([C@H]2CC[C@H](CN(c3cc(-c4cnc(C(C)C)s4)ccn3)C(=O)[C@H]3CC[C@H](O)CC3)CC2)cc1C` [Compound 9.28, trans-4-Hydroxy-N-(4-(2-isoporpylthiazol-5-yl)pyridin-2-yl)-N-((trans-4-(4-methoxy-3-methylphenyl)cyclohexyl)methyl) cyclohexanecarboxamide] and `COc1ccc([C@H]2CC[C@H](CN(c3cccc(-c4cnc(O)s4)c3)C(=O)[C@H]3CC[C@H](O)CC3)CC2)cc1C` [Compound 3, trans-4-Hydroxy-N-(3-(2-hydroxythiazol-5-yl)phenyl)-N-((trans-4-(4-methoxy-3-methylphenyl)cyclohexyl)methyl) cyclohexanecarboxamide] cannot be ordered by EC50: at most 0.25 µM for the first, 0.25 to 1 µM for the second.

`COc1ncc(-c2cccc(N(C[C@H]3CC[C@H](c4ccc(OC)c(C#N)c4)CC3)C(=O)[C@H]3CC[C@H](O)CC3)c2)s1` [Compound 9.06, trans-N-((trans-4-(3-Cyano-4-methoxyphenyl)cyclohexyl)methyl)-4-hydroxy-N-(3-(2-methoxythiazol-5-yl)phenyl)cyclohexanecarboxamide] and `COc1ccc([C@H]2CC[C@H](CN(c3cccc(-c4cnc(OC(F)F)s4)c3)C(=O)[C@H]3CC[C@H](O)CC3)CC2)cc1C` [Compound 9.01, trans-N-(3-(2-(Difluoromethoxy)thiazol-5-yl)phenyl)-4-hydroxy-N-((trans-4-(4-methoxy-3-methylphenyl)cyclohexyl)methyl) cyclohexanecarboxamide] cannot be ordered by EC50: at most 0.25 µM for the first, at most 0.25 µM for the second.

`COc1ccc(C23CCC(CN(c4cccc(C#Cc5nccs5)c4)C(=O)[C@H]4CC[C@H](O)CC4)(CC2)CC3)cc1C` [Compound 8.04, trans-4-Hydroxy-N-((4-(4-methoxy-3-methylphenyl)bicyclo[2.2.2]octan-1-yl)methyl)-N-(3-(thiazol-2-ylethynyl)phenyl)cyclohexanecarboxamide] and `COc1ncc(-c2cccc(N(CC34CCC(c5ccc(OC)c(C)c5)(CC3)CC4)C(=O)[C@H]3CC[C@H](O)CC3)c2)s1` [Compound 11, trans-4-Hydroxy-N-((4-(4-methoxy-3-methylphenyl)bicyclo[2.2.2]octan-1-yl)methyl)-N-(3-(2-methoxythiazol-5-yl)phenyl)cyclohexanecarboxamide] cannot be ordered by EC50: at most 0.25 µM for the first, at most 0.25 µM for the second.

`COc1ccc([C@H]2CC[C@H](CN(c3cccc(C#Cc4cscn4)c3)C(=O)[C@H]3CC[C@H](O)CC3)CC2)cc1C` [Compound 8, trans-4-Hydroxy-N-((trans-4-(4-methoxy-3-methylphenyl)cyclohexyl)methyl)-N-(3-(thiazol-4-ylethynyl)phenyl)cyclohexanecarboxamide] and `COc1ccc([C@H]2CC[C@H](CN(c3cccc(-c4cncs4)c3)C(=O)[C@H]3CC[C@H](O)CC3)CC2)cc1C` [Compound 6.02, trans-4-Hydroxy-N-((trans-4-(4-methoxy-3-methylphenyl)cyclohexyl)methyl)-N-(3-(thiazol-5-yl)phenyl)cyclohexanecarboxamide] cannot be ordered by EC50: at most 0.25 µM for the first, 0.25 to 1 µM for the second.

`COc1ccc([C@H]2CC[C@H](CN(c3cccc(-c4cnc(OCCO)s4)c3)C(=O)[C@H]3CC[C@H](O)CC3)CC2)cc1C` [Compound 7.18, trans-4-Hydroxy-N-(3-(2-(2-hydroxyethoxy)thiazol-5-yl)phenyl)-N-((trans-4-(4-methoxy-3-methylphenyl)cyclohexyl)methyl) cyclohexanecarboxamide] and `COc1ccc([C@H]2CC[C@H](CN(c3cccc(-c4cnc(SC)s4)c3)C(=O)[C@H]3CC[C@H](O)CC3)CC2)cc1C` [Compound 7.11, trans-4-Hydroxy-N-((trans-4-(4-methoxy-3-methylphenyl)cyclohexyl)methyl)-N-(3-(2-(methylthio)thiazol-5-yl)phenyl)cyclohexanecarboxamide] cannot be ordered by EC50: at most 0.25 µM for the first, at most 0.25 µM for the second.

`COc1ccc(C23CCC(CN(c4cccc(-c5cnc(C6CC6)s5)c4)C(=O)[C@H]4CC[C@H](O)CC4)(CC2)CC3)cc1C` [Compound 10, trans-N-(3-(2-Cyclopropylthiazol-5-yl)phenyl)-4-hydroxy-N-((4-(4-methoxy-3-methylphenyl)bicyclo[2.2.2]octan-1-yl)methyl)cyclohexanecarboxamide] and `COc1ncc(-c2cccc(N(C[C@H]3CC[C@H](c4ccc(OC)c(C)c4)CC3)C(=O)C3CCCCC3)c2)s1` [Compound 1.01, N-((trans-4-(4-Methoxy-3-methylphenyl)cyclohexyl)methyl)-N-(3-(2-methoxythiazol-5-yl)phenyl)cyclohexanecarboxamide] cannot be ordered by EC50: at most 0.25 µM for the first, at most 0.25 µM for the second.
